Read-outs that look alike come from different tables or passages of the source.
Target: T1, CETP (Homo sapiens, UniProt P11597)
T1 sequence (P11597 18-493): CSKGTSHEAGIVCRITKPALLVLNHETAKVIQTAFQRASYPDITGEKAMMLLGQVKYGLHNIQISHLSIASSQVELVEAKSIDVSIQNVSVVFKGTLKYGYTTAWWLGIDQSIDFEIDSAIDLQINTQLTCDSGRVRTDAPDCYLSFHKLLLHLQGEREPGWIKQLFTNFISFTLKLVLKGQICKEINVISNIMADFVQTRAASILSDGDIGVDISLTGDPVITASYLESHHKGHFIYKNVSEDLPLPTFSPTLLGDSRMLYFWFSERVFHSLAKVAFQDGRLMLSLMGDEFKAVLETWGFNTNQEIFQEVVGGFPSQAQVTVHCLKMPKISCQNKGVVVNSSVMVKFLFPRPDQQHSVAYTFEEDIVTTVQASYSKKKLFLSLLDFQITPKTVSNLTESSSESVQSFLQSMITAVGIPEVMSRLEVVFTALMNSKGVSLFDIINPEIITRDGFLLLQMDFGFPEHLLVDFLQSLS
Assay: Assay of CETP Inhibition using Purified Components (Reconstituted Buffer Assay)
Type: biochemical
Design: made in house; host or cells: CHO cells (serum-free conditioned medium)
Conditions: transfer of [3H]CE from HDL to LDL
Method in brief: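 Transfer of radiolabeled cholesteryl ester from HDL to LDL was run for 2 h at 37 °C in pH 7.4 Tris buffer with 1% BSA, using purified CHO-expressed human CETP. Precipitated LDL radioactivity, measured by scintillation after dextran sulfate/MgCl2 precipitation and filtration, yielded the IC50.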

[1] = Inhibition of CETP activity in reconstituted buffer assay, read-out: IC50
[2] = IC50, Inhibition of CETP activity in reconstituted buffer assay

SMILES | IC50 [1] | IC50 [2]
CS(=O)(=O)c1ccc(-c2cccc(N(Cc3cccc(OC(F)(F)C(F)F)c3)CC(O)C(F)(F)F)c2)cc1 (stereo not drawn) [Example 575] | > 50 µM | –
OC(CN(Cc1cccc(OC(F)(F)C(F)F)c1)c1cccc(-c2nn[nH]n2)c1)C(F)(F)F (stereo not drawn) [Example 577, 3-[[[3-(1,1,2,2-tetrafluoroethoxy)phenyl]methyl][3-(1H-tetrazol-5-yl)phenyl]amino]-1,1,1-trifluoro-2-propanol] | > 50 µM | –
CCOC(=O)c1cccc(N(Cc2cccc(OC(F)(F)F)c2)CC(O)C(F)(F)F)c1 (stereo not drawn) [Example 585, Ethyl 3-[(3,3,3-trifluoro-2-hydroxypropyl)[[(3-trifluoromethoxy)phenyl]methyl]amino]benzoate] | 5.8 µM | –
O=C(O)c1cccc(N(Cc2cccc(OC(F)(F)F)c2)CC(O)C(F)(F)F)c1 (stereo not drawn) [Example 586] | > 50 µM | –
OC(CN(Cc1cccc(-c2ncccc2C(F)(F)F)c1)c1cccc(Oc2ccccc2)c1)C(F)(F)F (stereo not drawn) [Example 588, 3-[(3-phenoxyphenyl)[[3-[(3-trifluoromethyl)-2-pyridinyl]phenyl]methyl]amino]-1,1,1-trifluoro-2-propanol] | – | 4.1 µM
Cc1cccnc1-c1cccc(CN(CC(O)C(F)(F)F)c2cccc(Oc3ccccc3)c2)c1 (stereo not drawn) [Example 589] | – | 15 µM
OC(CN(Cc1cccc(-c2cccnc2)c1)c1cccc(Oc2ccccc2)c1)C(F)(F)F (stereo not drawn) [Example 590] | 14 µM | –
OC(CN(Cc1cccc(-c2ccncc2)c1)c1cccc(Oc2ccccc2)c1)C(F)(F)F (stereo not drawn) [Example 591] | – | 6.2 µM
CC(C)Cc1cccc(CN(CC(O)C(F)(F)F)c2cccc(Oc3ccccc3)c2)c1 (stereo not drawn) [Example 598] | – | 0.54 µM
OC(CN(Cc1cccc(-c2ccccc2)c1)c1cccc(Oc2ccccc2)c1)C(F)(F)F (stereo not drawn) [Example 606] | 4.2 µM | –
FC(F)C(F)(F)Oc1cccc(C2OC(C(F)(F)F)CN2c2cccc(Oc3ccccc3)c2)c1 (stereo not drawn) [Example 610, 3-(3-phenoxyphenyl)-2-[3-(1,1,2,2-tetrafluoroethoxy)phenyl]-5-(trifluoromethyl)oxazolidine] | 20 µM | –
OC(CCN(Cc1cccc(OC(F)(F)F)c1)Cc1cccc(OC(F)(F)F)c1)C(F)(F)F (stereo not drawn) [Example 611, 4-[bis-[[3-(trifluoromethoxy)phenyl]methyl]amino]-1,1,1-trifluoro-2-butanol] | 12 µM | –
CN(C)C(=O)c1cccc(CN(CC(O)C(F)(F)F)c2cccc(Oc3ccccc3)c2)c1 (stereo not drawn) [Example 612, N,N-dimethyl-3-[[(3-phenoxyphenyl)(3,3,3-trifluoro-2-hydroxypropyl)amino]methyl]benzamide] | 35 µM | –
CC(CCc1cccc(OC(F)(F)F)c1)N(CC(O)C(F)(F)F)c1cccc(Oc2ccccc2)c1 (stereo not drawn) [Example 626, 3-[[1-methyl-3-[3-(trifluoromethoxy)phenyl]propyl](3-phenoxyphenyl)amino]-1,1,1-trifluoro-2-propanol] | 30 µM | –
CCN(CC)c1ccc(CN(CC(O)C(F)(F)F)c2cccc(Oc3ccccc3)c2)cc1 (stereo not drawn) [Example 631, 3-[(3-phenoxyphenyl)[[4-(N,N-diethylamino)phenyl]methyl]amino]-1,1,1-trifluoro-2-propanol] | > 100 µM | –

Now from value to compound, other results behind:

IC50 [1] | SMILES | IC50 [2]
6.4 µM | N#Cc1cccc(N(Cc2cccc(OC(F)(F)C(F)F)c2)CC(O)C(F)(F)F)c1 (stereo not drawn) [Example 576, 3-[[[3-(1,1,2,2-tetrafluoroethoxy)phenyl]methyl](3,3,3-trifluoro-2-hydroxypropyl)amino]benzonitrile] | –
0.76 µM | Cc1cc(C(=O)c2cccc(N(Cc3cccc(OC(F)(F)C(F)F)c3)CC(O)C(F)(F)F)c2)ccc1F (stereo not drawn) [Example 578, (4-Fluoro-3-methylphenyl) [3-[[[(1,1,2,2-tetrafluoroethoxy)phenyl]methyl](3,3,3-trifluoro-2-hydroxypropyl)amino]phenyl]methanone] | –
1.8 µM | O=C(c1ccccc1)c1cccc(N(Cc2cccc(OC(F)(F)C(F)F)c2)CC(O)C(F)(F)F)c1 (stereo not drawn) [Example 579] | –
2.3 µM | O=C(c1ccc(F)cc1)c1cccc(N(Cc2cccc(OC(F)(F)C(F)F)c2)CC(O)C(F)(F)F)c1 (stereo not drawn) [Example 580] | –
0.87 µM | O=C(c1cccc(N(Cc2cccc(OC(F)(F)C(F)F)c2)CC(O)C(F)(F)F)c1)C1CCCC1 (stereo not drawn) [Example 581] | –
1.4 µM | CC(C)C(=O)c1cccc(N(Cc2cccc(OC(F)(F)C(F)F)c2)CC(O)C(F)(F)F)c1 (stereo not drawn) [Example 582] | –
6.4 µM | OC(c1ccccc1)c1cccc(N(Cc2cccc(OC(F)(F)C(F)F)c2)CC(O)C(F)(F)F)c1 (stereo not drawn) [Example 583, α-Phenyl-3-[[[3-(1,1,2,2-tetrafluoroethoxy)phenyl]methyl]](3,3,3-trifluoro-2-hydroxypropyl)benzenemethanol] | –
13 µM | OC(CN(Cc1cccc(Cc2ccccc2)c1)c1cccc(Oc2ccccc2)c1)C(F)(F)F (stereo not drawn) [Example 596, 3-[(3-phenoxyphenyl)[[3-(phenylmethyl)phenyl]methyl]amino]-1,1,1-trifluoro-2-propanol] | –
2 µM | CC(C)CCc1cccc(CN(CC(O)C(F)(F)F)c2cccc(Oc3ccccc3)c2)c1 (stereo not drawn) [Example 597] | –
12 µM | OC(CN(Cc1cccc(Oc2ncccn2)c1)c1cccc(Oc2ccccc2)c1)C(F)(F)F (stereo not drawn) [Example 605, 3-[(3-phenoxyphenyl) [[3-(2-pyrimidinyloxy)phenyl]methyl]amino]-1,1,1-trifluoro-2-propanol] | –
0.31 µM | OC(CN(Cc1cccc(C2CCCC2)c1)c1cccc(Oc2ccccc2)c1)C(F)(F)F (stereo not drawn) [Example 607, 3-[(3-phenoxyphenyl)[[3-cyclopentylphenyl]methyl]amino]-1,1,1-trifluoro-2-propanol] | –
2.3 µM | OC(CN(Cc1cccc(C2CCCO2)c1)c1cccc(Oc2ccccc2)c1)C(F)(F)F (stereo not drawn) [Example 608, 3-[(3-phenoxyphenyl)[[3-(tetrahydro-2-furanyl)phenyl]methyl]amino]-1,1,1-trifluoro-2-propanol] | –
7.9 µM | CC(C)(O)c1cccc(CN(CC(O)C(F)(F)F)c2cccc(Oc3ccccc3)c2)c1 (stereo not drawn) [Example 617, α, α-dimethyl-3-[[(3-phenoxyphenyl)(3,3,3-trifluoro-2-hydroxypropyl)amino]methyl]benzenemethanol] | –
5 µM | CCC(=O)c1cccc(CN(CC(O)C(F)(F)F)c2cccc(Oc3ccccc3)c2)c1 (stereo not drawn) [Example 620, 1-[3-[[(3-phenoxyphenyl)(3,3,3-trifluoro-2-hydroxypropyl)-amino]methyl]phenyl]-1-propanone] | –
3.5 µM | OC(CN(Cc1cccc(C(F)(F)F)c1)c1ccc(C#Cc2ccccc2)c(C(F)(F)F)c1)C(F)(F)F (stereo not drawn) [Example 622] | –
8.3 µM | OC(CN(Cc1cccc(C(F)(F)F)c1)c1ccc(Br)c(C(F)(F)F)c1)C(F)(F)F (stereo not drawn) [Example 625, 3-[4-bromo-3-(trifluoromethyl)phenyl[[3-(trifluoromethyl)-phenyl]methyl]amino]-1,1,1-trifluoro-2-propanol] | –
4.1 µM | COCc1cccc(CN(CC(O)C(F)(F)F)c2cccc(Oc3ccccc3)c2)c1 (stereo not drawn) [Example 627, 3-[[(3-phenoxyphenyl)(3,3,3-trifluoro-2-hydroxypropyl)amino]methyl]methoxymethylbenzene] | –
6.8 µM | OC(CN(Cc1cccc(OC(F)(F)F)c1)c1nc(Cl)nc(Oc2ccc(F)cc2)n1)C(F)(F)F (stereo not drawn) [Example 632, N-[2-chloro-6-(p-fluorophenoxy)-1,3,5-triazin-4-yl]-3-[[[3-(trifluoromethoxy)phenyl]methyl]amino]-1,1,1-trifluoro-2-propanol] | –

From patent US6723753B2, “Substituted n-benzyl-n-phenyl aminoalcohol compounds useful for inhibiting cholesteryl ester transfer protein activity” (Pharmacia Corporation, priority 2002, dated 2004)
